The target in data set [1] is T1, ADAAD (Bos taurus, UniProt Q9TTA5).
T1 sequence (Q9TTA5 229-940 limits assumed): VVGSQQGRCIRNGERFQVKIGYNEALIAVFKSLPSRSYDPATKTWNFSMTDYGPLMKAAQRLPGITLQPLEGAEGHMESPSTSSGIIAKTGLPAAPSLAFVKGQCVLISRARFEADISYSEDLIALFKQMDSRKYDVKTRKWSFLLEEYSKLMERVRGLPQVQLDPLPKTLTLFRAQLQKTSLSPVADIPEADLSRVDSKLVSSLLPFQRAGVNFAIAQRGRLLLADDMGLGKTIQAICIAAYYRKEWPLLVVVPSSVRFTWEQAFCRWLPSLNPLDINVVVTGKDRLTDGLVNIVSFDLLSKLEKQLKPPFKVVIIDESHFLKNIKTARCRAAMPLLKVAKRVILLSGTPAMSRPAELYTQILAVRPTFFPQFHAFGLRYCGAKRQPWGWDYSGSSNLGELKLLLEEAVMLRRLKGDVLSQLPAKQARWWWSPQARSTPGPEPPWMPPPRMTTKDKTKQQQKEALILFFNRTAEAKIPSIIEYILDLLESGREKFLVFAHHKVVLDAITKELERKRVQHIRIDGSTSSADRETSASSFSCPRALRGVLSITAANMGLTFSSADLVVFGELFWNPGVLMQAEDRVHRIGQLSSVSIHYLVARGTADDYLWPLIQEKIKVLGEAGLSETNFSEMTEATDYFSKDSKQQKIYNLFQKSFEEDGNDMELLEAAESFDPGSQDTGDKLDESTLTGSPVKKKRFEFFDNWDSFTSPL
Conditions: ADAAD alone; His-ADAAD; ref Nongkhlaw et al. (Nongkhlaw, 2009); cited from earlier work.

Data set [2] addresses T1, ADAAD. The data set is described as follows: Intrinsic tryptophan fluorescence quenching binding titration with His-ADAAD. Here is the method:
His-ADAAD, used for binding studies, was purified as described previously. For mapping and CD studies, ADAAD as well as deletion constructs were expressed as GST-fusion protein in BL21 (DE3) cells and purified as described previously. In case of deletion constructs the GST-tag was not cleaved as the resultant proteins were not stable.
Fluorescence was measured at 25°C using Cary-Varian spectrofluorimeter as described previously. Stem-loop DNA (5′- […]-3′), synthesized by Sigma-Aldrich, was used in these studies. The intrinsic fluorescence quenching data obtained with acrylamide was analyzed using Stern-Volmer plots as described previously, [14].
To understand the interaction of ADAADi with ADAAD, a member of the SWI2/SNF2 family, we synthesized ADAADi using kanamycin and neomycin. These derivatives, ADAADiK and ADAADiN respectively, were purified and titrated with protein while monitoring the quenching of the intrinsic tryptophan fluorescence. […] This binding constant was same as that in the absence of ATP and slDNA. A similar result was obtained with ADAADiK (Figure S3A and S3B; Table 1). We thus conclude that the interaction of the inhibitor with ADAAD is independent of these two ligands.

The target in data set [3] is T2, ADAAD wild type (GST cleaved) (UniProt Q9TTA5 229-940).
T2 sequence: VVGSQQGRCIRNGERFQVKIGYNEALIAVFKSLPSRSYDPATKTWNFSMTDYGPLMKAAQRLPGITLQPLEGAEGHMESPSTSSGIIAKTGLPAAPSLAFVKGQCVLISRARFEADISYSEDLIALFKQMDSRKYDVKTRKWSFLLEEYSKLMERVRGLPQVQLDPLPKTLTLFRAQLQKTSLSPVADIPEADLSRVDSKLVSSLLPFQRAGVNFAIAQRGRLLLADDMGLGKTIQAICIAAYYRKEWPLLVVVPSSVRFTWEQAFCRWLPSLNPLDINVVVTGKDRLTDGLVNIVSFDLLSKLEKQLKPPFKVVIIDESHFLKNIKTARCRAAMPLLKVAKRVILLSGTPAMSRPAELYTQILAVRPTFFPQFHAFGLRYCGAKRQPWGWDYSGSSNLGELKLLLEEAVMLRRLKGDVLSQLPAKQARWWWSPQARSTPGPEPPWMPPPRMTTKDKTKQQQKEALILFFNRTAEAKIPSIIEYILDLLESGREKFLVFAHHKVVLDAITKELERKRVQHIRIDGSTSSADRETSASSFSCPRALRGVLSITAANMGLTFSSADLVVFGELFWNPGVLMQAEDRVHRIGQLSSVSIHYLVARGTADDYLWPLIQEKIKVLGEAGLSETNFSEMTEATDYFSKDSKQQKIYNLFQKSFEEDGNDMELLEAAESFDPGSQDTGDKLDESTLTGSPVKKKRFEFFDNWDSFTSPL
The data set is described as follows: intrinsic tryptophan fluorescence quenching; Fluorescence at 25 C (Cary-Varian spectrofluorimeter); buffer, salt and pH not given (as in ref 13). Conditions: protein: recombinant; tags: none (GST removed with PreScission); hairpin.

Like-named read-outs stand apart in the source and are kept apart here.

By Kd is commonly meant a measure of binding affinity in units of concentration.

Take `Nc1ncnc2c1ncn2[C@@H]1O[C@H](COP(=O)(O)OP(=O)(O)OP(=O)(O)O)[C@@H](O)[C@H]1O` [ATP]: the Kd on ADAAD [1] was 1600 nM; on ADAAD [2], 100 ± 3 nM. The “fold higher affinity than in the absence of the inhibitor” value at ADAAD [2] (in the presence of ADAADiK) and on ADAAD [2] (in the presence of ADAADiN) was 10 fold each time.

B1: slDNA (stem-loop DNA) (structured_DNA)
DNA: GCGCAATTGCGCTCGACGATTTTTTAGCGCAATTGCGC
With B1, the Kd in data set [3] was determined as 3.8 ± 1.1 nM.
